One test concerns HEK293 cells. Put plainly: CerS2 siRNA knockdown in HEK293 cells with nervonic acid treatment, C24:1 ceramide. To be noted: 1 μM NA for 24 hours. In kind it is cell-based. The procedure:
Cell culture. HEK293 cells were grown in DMEM containing 10% FBS. Cells were transfected with Silencer Select siRNA to CerS2 (s26789) or Silencer Select negative control No. 1 using LIPOFECTAMINE® 3000 brand transfection reagent following the manufacturer's protocol. All culture reagents were obtained from Thermo Fisher Scientific (Waltham, Mass., United States of America). 48 hours post-transfection, cells were treated with vehicle or 1 μM nervonic acid for 24 hours.
Sphingolipid and acylcarnitine measurements by liquid chromatography-mass spectrometry. Sphingolipids were analyzed as described previously (Wijesinghe et al., 2010) for FIG. 1B or with modifications described herein. Liver samples from rats fed a low or high fat diet were obtained from Scot Kimball's laboratory at the Pennsylvania State University (Hershey, Pa.). Mouse liver samples were analyzed with modifications as described previously (Pearson et al., 2020). For FIGS. 1A and 5D, liver homogenates were subjected to lipid extraction and subjected to liquid chromatography-electrospray ionization mass spectrometry was performed on an I-class Acquity with a 2.1 mm×10 cm C18 CSH […] particle size column coupled to an in-line TQ-S mass spectrometer from Waters Corporation (Milford, Mass., United States of America).

The subject of test [1] is C57Bl/6J mice. Put plainly: Average food consumption over 12 weeks. In kind it is in vivo, mouse. The procedure:
Animals. Animal experiments were approved by the Animal Care and Use Committee of the University of Virginia (Charlottesville, Va., United States of America). C57Bl/6J mice were obtained from Jackson Laboratories (Bar Harbor, Me., United States of America). Mice were group housed in standard cages with up to five mice per cage with a 12 hour dark/light cycle. All mice were weighed once per week. Weekly food consumption was measured, with the amount consumed per cage averaged amongst the mice in the cage. Body composition was determined by use of an ECHOMRI™-100H Body Composition Analyzer (EchoMRI LLC, Houston, Tex., United States of America).

Test [2] concerns C57Bl/6J mice. Put plainly: Fecal caloric content by bomb calorimetry. In kind it is in vivo, mouse. The procedure: (§1) For determination of energy expenditure, respiratory exchange ratios, and activity, mice were placed in an Oxymax metabolic chamber systems (Comprehensive Laboratory Animal Monitoring System, CLAMS, from Columbus Instruments (Columbus, Ohio, United States of America). Oxygen consumption (V02) and carbon dioxide production (VCO2) were determined for each mouse every 18 minutes over 72 hours with ambulatory activity assessed every minute over this same time period. Only the last two complete light and dark cycles (spanning 48 hours) were used for data analysis. Feces was collected from these studies and shipped to the Mouse Metabolic Phenotyping Core at the University of Texas Southwestern for bomb calorimetry analysis using a Parr 6200 Isoperibol Calorimeter (Parr Instrument Company, Moline, Ill., United States of America).

Test [3] relates to C57Bl/6J mice. Put plainly: Plasma insulin (fasting and after IP glucose). In kind it is in vivo, mouse. Conditions: for fasting (basal) plasma insulin levels: HFD+NA versus HFD; for fasting (basal) plasma insulin levels / fasting plasma insulin levels: 8 weeks; for increase in insulin after intraperitoneal administration of glucose: HFD+NA, 30 min after IP glucose; for fasting plasma insulin levels: control diet with NA. The procedure:
Insulin Tolerance Test (ITT) and Glucose Tolerance Test (GTT) and analysis of blood glucose and plasma insulin. ITT and GTT were performed as described in Lansey et al., 2012. Briefly, for ITT, random-fed mice were given an intraperitoneal injection (IP) of insulin (0.75 U/kg in 0.9% NaCl). Blood glucose levels were determined by a glucometer (Contour Next EZ Blood Glucose Monitoring System, Bayer, Leverkusen, Germany) at the indicated time points after injection. For GTT, mice were fasted for 16 hours prior to testing. D-Glucose, prepared the day before, was administered via an IP injection (1 g/kg), and blood glucose levels were determined by a glucometer at the indicated time points after injection. Plasma insulin levels were determined using a STELLUX® brand Chemi Rodent Insulin ELISA kit (Cat. No. 80-INSMR-CHO1; APLCO, Salem, N.H., United States of America) or an Ultrasensitive Rat/Mouse Insulin ELISA kit, Low Range Assay (Cat. No. 90060; Crystal Chem, Downers Grove, Ill., United States of America). The luminescence assay was conducted using a VICTOR2 Plate Reader (Perkin Elmer, Waltham, Mass., United States of America).
For assessment of insulin, blood was collected with heparinized capillary tubes and subsequently centrifuged to obtain plasma. Insulin levels was then determined using a STELLUX® Chemi Rodent Insulin ELISA kit (Catalog No. 80-INSMR-CHO1, APLCO, Salem, N.H., United States of America) or an Ultrasensitive Rat/Mouse Insulin ELISA kit low range (Cat. No 90060; Crystal Chem, Downers Grove, Ill., United States of America). The luminescence assay was conducted using a VICTOR2 Plate Reader (Perkin Elmer, Waltham, Mass., United States of America).

Test [4] deals with C57Bl/6J mice. Put plainly: Energy expenditure, respiratory exchange ratio and locomotion in metabolic cages. In kind it is in vivo, mouse. The method, then:
as §1

For another test, the system named is PGC1α. Kind of test: Liver transcript analysis by qRT-PCR. In kind it is in vivo, mouse. Conditions: HFD+NA. The procedure: (§2) Transcript analysis. RNA was isolated from mouse liver by manual homogenization in TRIzol reagent (Invitrogen, Carlsbad, Calif., United States of America) following the manufacturer's instructions. Total RNA underwent DNase I treatment (New England Biolabs, Ipswich, Mass., United States of America) and cDNA was made using the ISCRIPT™ brand cDNA Synthesis Kit (Bio-Rad Laboratories, Hercules, Calif., United States of America). Quantitative real-time PCR was carried out using Bio-Rad SYBR® green probes (PPARα Bio-Rad Assay ID qMmuCID0005156; SIRT1 Bio-Rad Assay ID qMmuCID0015511; PGC1α Bio-Rad Assay ID qMmuCID0006032). The TATA binding protein (Bio-Rad Assay ID qMmuCID0040542) gene was used to normalize target gene abundance. Biological samples were run in triplicate.

The subject of another test is PPARα. Kind of test: Liver transcript analysis by qRT-PCR. In kind it is in vivo, mouse. To be noted: HFD+NA. The procedure: as §2
In general terms: Quantitative PCR measures a nucleic acid by following its amplification.

In a further test the test system is SIRT1. Put plainly: Liver transcript analysis by qRT-PCR. To be noted: HFD+NA. In kind it is in vivo, mouse. The method, then:
as §2

On to (Z)-tetracos-15-enoic acid [NA], for which the “C24:1 ceramide after CerS2 knockdown” value in the test with HEK293 cells is “only partially restored”. Besides, the average food consumption entry in the test with C57Bl/6J mice [1] (HFD+NA versus HFD, 12 weeks) is on record as “similar”. For the same substance, the food consumption entry in the test on C57Bl/6J mice [1] (control+NA versus control) is recorded as “not significantly different”. In addition, the fecal caloric content result with C57Bl/6J mice [2] (HFD+NA versus HFD) is “No differences”. Also, the fecal caloric content entry in the test on C57Bl/6J mice [2] (control+NA versus control) was “No differences”. In the test on C57Bl/6J mice [3], the “fasting (basal) plasma insulin levels” value is “significantly reduced”, the “increase in insulin after intraperitoneal administration of glucose” value is given as “no such increase” and the “fasting plasma insulin levels” value is listed as “did not affect insulin levels”. For the same substance, in the test with C57Bl/6J mice [3] (listed as nervonic acid), the “fasting (basal) plasma insulin levels” value is reported as “reduced insulin levels”, the “increase in insulin after intraperitoneal administration of glucose” value is reported as “not observed” and the “fasting plasma insulin levels” value is reported as “did not influence insulin levels”. Besides, in the test on C57Bl/6J mice [4] (HFD+NA versus HFD), the ambulatory activity entry is reported as “similar”. In addition, the “oxygen consumption (VO2)” value in the test on C57Bl/6J mice [4] (HFD+NA versus HFD, light and dark cycle) is “significantly lower”. Besides, the “carbon dioxide production (VCO2)” value in the test with C57Bl/6J mice [4] (HFD+NA versus control and HFD groups) is reported as “significant reduction”. In the test with C57Bl/6J mice [4] (control+NA versus control), the ambulatory activity result is reported as “similar” and the heat production result is reported as “No differences”. For the same substance, the “respiratory exchange ratio (RER)” value in the test on C57Bl/6J mice [4] (control+NA versus control, light and dark cycles) was “No statistical changes”. In addition, in the test with PGC1α, the “PGC1α mRNA levels in liver” value is listed as “restored”. Moreover, the “PPARα mRNA levels in liver” value in the test on PPARα is on record as “increased”. The “SIRT1 mRNA levels in liver” value in the test with SIRT1 is recorded as “restored”.
